Source: paper PMC8145107 (Pharmaceutics, 2021)
Read-outs that look alike come from different tables or passages of the source.

Tests used:
[1] = tested on: Salmonella typhimurium TA100; settings: for Ames test outcome versus vehicle control: TA100, 48 h, J2 40 μg/plate, NA49 200 μg/plate
Experimental: (§1) To perform the Ames test of J2 and NA49, the number of revertant colonies was counted on each compound-treated plate at the maximum concentration at which the compound was soluble and nontoxic to the S. typhimurium tester strains (Supplementary Material S1). The ratio of the number of revertant colonies in the treated plate to colonies in the vehicle plate. […] For the hERG K^+ channel binding assay of J2 and NA49, the inhibitory activity against the hERG K^+ channel and its ligand was measured using a red fluorescent hERG channel ligand tracer. The final activity was assessed as a decrease in the degree of fluorescence polarization. […]
(§2) The test was conducted with maximum concentration at which the compound was
(§3) soluble and nontoxic to the S. typhimurium tester strains. #Factor = No. of revertant colonies
(§4) of treated plate colonies of vehicle control plate. […]

[2] = tested on: Salmonella typhimurium TA98; settings: for Ames test outcome versus vehicle control: TA98, 48 h, J2 40 μg/plate, NA49 200 μg/plate
Experimental: as §1, §2, §3, §4

[3] = tested on: HFL-1: human embryonic lung cell line; assay: Cytotoxicity in normal mammalian cells (HFL-1); assay type: cell-based; settings: HFL1, HFL-1, 24 h, 0.01-100 μM, read-out: IC50 of compounds in various normal mammalian cells
[4] = tested on: CHO-K1: Chinese hamster ovary cell line; assay: Cytotoxicity in normal mammalian cells (CHO-K1); assay type: cell-based; settings: Cricetulus griseus; CHO-K1, 24 h, 0.01-100 μM; read-out: IC50 of compounds in various normal mammalian cells
PC9 cells [5] = assay: Cell death by PI staining / flow cytometry, PC9; assay type: cell-based, human; settings: NA 10 µM + gefitinib 0.01 µM, CompuSyn
Experimental: (§5) Cells were plated in 6-well culture plates at a density of 1 × 10^5 cells/well. Compounds were applied to the cells immediately after seeding. When cells were harvested, cells were washed once with 1× phosphate-buffered saline (PBS), dissociated using Trypsin-EDTA, and centrifuged at 13,000 rpm for 3 min at 4 °C. Next, 1 mL of 1× PBS was added to wash the pellet again. Finally, 1 mL of 1× PBS and 1 μg/mL of propidium iodide (PI) were added to each polystyrene round-bottom tube. Flow cytometric analysis was performed using a FACS flow cytometer (BD Bioscience). To measure cell death, 10^4 cells were counted, and PI-stained cells were analyzed. FACS analysis in accordance with the manufacturer’s instruction. […]
(§6) Table S1. CI values of NSCLC cell lines.
(§7) Cell line Combination drug NA 10 µM NA 20 µM
(§8) CI values were calculated from the data of percent inhibition of cell death by PI staining. Each CI
(§9) value was analyzed by CompuSyn software. […]

HCC827 cells [6] = assay: Cell death by PI staining / flow cytometry, HCC827; assay type: cell-based, human; settings: NA 10 µM + gefitinib 0.01 µM, CompuSyn
Experimental: as §5, §6, §7, §8, §9

A549 cells [7] = assay: MTT viability assay, A549; assay type: cell-based; settings: Homo sapiens, 24 h
NCI-H1650 xenograft = assay: NCI-H1650 tumor xenograft in mice; assay type: in vivo, NOD-SCID mice; settings: NA49 20 mg/kg IP every other day + Gef 5 mg/kg IP
Experimental: (§10) NCI-H460 single-cell suspension (1 × 10^6 cells) was injected subcutaneously into the hind legs of 6-week-old BALB/c nude mice (Orientbio, Korea). […] NCI-H1650 single-cell suspension (1 × 10^7 cells) was injected subcutaneously into the hind leg of 6-week-old NOD-SCID mice (Koatech, Korea). When tumors reached a minimal volume of 150 mm^3, xenograft mice were treated 7 times with J2 or NA49 by local regional application with or without gefitinib (5 mg/kg) by IP injection. For this, J2 or NA49 (20 mg/kg) was injected by IP every two days, and gefitinib was injected every three days. Tumor volumes were determined according to the formula (L × l^2)/2, by measuring tumor length (L) and width (l) with a caliper. Tumors were measured every other day and allowed to grow for 15 or 34 days. All procedures for animal experiments were in accordance with the guidelines by the Ewha Woman’s University Institutional Animal Care and Use Committee (IACUC, 18-006), Seoul, Korea.

NCI-H1975 cells [8] = assay: Cell death by PI staining / flow cytometry, NCI-H1975; assay type: cell-based, human; settings: NA 10 µM + gefitinib 10 µM, CompuSyn
Experimental: as §5, §6, §7, §8, §9

NCI-H1975 cells [9] = assay: MTT viability assay, NCI-H1975; assay type: cell-based; settings: Homo sapiens, 24 h
Experimental: (§11) The human NSCLC cell lines of NCI-H460, A549, HCC827, PC9, NCI-H1650, and NCI-H1975 were obtained from the American Type Culture Collection (Rockville, MD, USA). Cells were cultured in RPMI 1640 medium containing 10% FBS, 2 mmol/L L-glutamine, and 100 units/mL of penicillin and streptomycin and maintained at 37 °C in a humidified incubator containing 5% CO2.
(§12) Cell viability against gefitinib-, cisplatin-, and NA49-induced toxicity was determined using an MTT (Amersham Pharmacia Biotech) assay in 96-well plates. […] Next, cells were incubated with 100 µL of 5 mg/mL 3-(4,5-dimethylthiazol-2-yl)-2,5-diphenyltetrazolium bromide (Sigma Aldrich, M5655) for 2 h. After the MTT mixture was removed, 100 µL of DMSO was added to each well, and absorbance at 540 nm was measured using an ELISA plate reader (TECAN, Twinfinite PRO).

NCI-H1650 cells [10] = assay: Cell death by PI staining / flow cytometry, NCI-H1650; assay type: cell-based, human; settings: CompuSyn
Experimental: as §5, §6, §7, §8, §9

HCC827 cells [11] = assay: MTT viability assay, HCC827; assay type: cell-based; settings: Homo sapiens, 24 h
Experimental: as §11, §12

NCI-H1650 cells [12] = assay: MTT viability assay, NCI-H1650; assay type: cell-based; settings: Homo sapiens, 24 h
Experimental: as §11, §12

A549 cells [13] = assay: Cell death by PI staining / flow cytometry, A549; assay type: cell-based, human; settings: PI staining, CompuSyn
Experimental: as §5, §6, §7, §8, §9

NCI-H460 xenograft = assay: NCI-H460 tumor xenograft in mice; assay type: in vivo, BALB/c nude mice; settings: NA49 20 mg/kg IP every other day + cisplatin 2 mg/kg IP twice a week
Experimental: as §10

PC9 cells [14] = assay: MTT viability assay, PC9; assay type: cell-based; settings: Homo sapiens, PC-9, 24 h
Experimental: as §11, §12

NCI-H460 cells [15] = assay: MTT viability assay, NCI-H460; assay type: cell-based, human; settings: Homo sapiens, 24 h
Experimental: as §11, §12

NCI-H460 cells [16] = assay: Cell death by PI staining / flow cytometry, NCI-H460; assay type: cell-based, human; settings: H460, PI staining, CompuSyn
Experimental: as §5, §6, §7, §8, §9

[17] = TA100, with S-9 mix, J2 40, NA49 200, benzo(a)pyrene 2 μg/plate
[18] = TA100, without S-9 mix, J2 40, NA49 200 μg/plate
[19] = TA98, with S-9 mix, J2 40, NA49 200, benzo(a)pyrene 2 μg/plate
[20] = TA98, without S-9 mix, J2 40, NA49 200, positive controls 1-2 μg/plate

Compound | Factor (revertant colonies of treated plate/vehicle control plate) [1, 17] | Revertant colonies/plate (Mean ± S.D.) [1, 17] | Factor (revertant colonies of treated plate/vehicle control plate) [1, 18] | Revertant colonies/plate (Mean ± S.D.) [1, 18] | Ames test outcome versus vehicle control [1] | Factor (revertant colonies of treated plate/vehicle control plate) [2, 19] | Revertant colonies/plate (Mean ± S.D.) [2, 19] | Factor (revertant colonies of treated plate/vehicle control plate) [2, 20] | Revertant colonies/plate (Mean ± S.D.) [2, 20] | Ames test outcome versus vehicle control [2] | IC50 [3] | IC50 [4] | further results
Cc1cc(=O)c2c(O)cc(OCC3CS3)cc2o1 (centres unmarked) [J2] | 3.1 | 418 ± 9 colonies/plate | 6.0 | 643 ± 70 colonies/plate | increased bacterial reverse mutation | 3.8 | 65 ± 2 colonies/plate | 3.6 | 57 ± 7 colonies/plate | increased bacterial reverse mutation | > 100 µM | > 100 µM | –
COc1ccc(-c2coc3cc(OCC4CS4)ccc3c2=O)c(OC)c1 (centres unmarked) [NA49] | 1.9 | 262 ± 11 colonies/plate | 2.0 | 229 ± 2 colonies/plate | no significant increase | 1.3 | 22 ± 2 colonies/plate | 1.2 | 19 ± 3 colonies/plate | no significant increase | 94.5 µM | 90.4 µM | CI value (combination index) (PC9 cells [5]): 1.84; CI value (combination index) (HCC827 cells [6]): 0.651; IC50 (A549 cells [7]): 62.5 ± 0.9 µM; Tumor growth, combination with NA49 compared to Gef alone (NCI-H1650 xenograft): greater reduction in tumor growth; CI value (combination index) (NCI-H1975 cells [8]): 0.392; IC50 (NCI-H1975 cells [9]): 89.4 ± 2.57 µM; CI value (combination index) (NCI-H1650 cells [10]; NA 10 µM + gefitinib 10 µM): 0.828; CI value (combination index) (NCI-H1650 cells [10]; NA 10 µM + gefitinib 20 µM): 0.487; IC50 (HCC827 cells [11]): 64.4 ± 2.31 µM; IC50 (NCI-H1650 cells [12]): 62.9 ± 1.58 µM; CI value (combination index) (A549 cells [13]; NA 10 µM + cisplatin 5 µM): 0.698; CI value (combination index) (A549 cells [13]; NA 20 µM + cisplatin 5 µM): 0.823; Tumor growth, combination with NA49 compared to cisplatin alone (NCI-H460 xenograft): greater reduction in tumor growth; IC50 (PC9 cells [14]): 73 ± 2.66 µM; IC50 (NCI-H460 cells [15]): 38.1 ± 0.69 µM; CI value (combination index) (NCI-H460 cells [16]; NA 10 µM + cisplatin 3 µM): 0.942; CI value (combination index) (NCI-H460 cells [16]; NA 20 µM + cisplatin 3 µM): 0.969
